Several values for one entry are separate records, joined by “and”; a condition that tells them apart may be missing. Equal entries are not always repeated.
Key:
Type in all cases: biochemical
PI3Kγ = PI3Kγ (Homo sapiens, UniProt P48736); test: Target kinase 10-point inhibition assay, PI3Kγ; details: PI3K gamma, replicates
Procedure: Quantitation of kinase inhibition was carried out by Life Technologies (Madison, WI) using the SelectScreen profiling platforms Z’-LYTE^TM and Adapta^TM. Single-point broad panel kinome screening was performed at 2.5 µM LP-182 against all kinases within the Z’-LYTE^TM and Adapta^TM assays (321 kinase isoforms, holoenzymes, or mutant variants). The average percent kinase inhibition from replicate data was ranked low to high, converted to a compatible identifier format, then input into Coral Human Kinome Visualization software for presentation analysis. […] Scaling of evolutionary distance for PI kinases is only relative and is based on literature analysis[62],[63]. Average percent kinome inhibition values from replicate data are supplied in Source Data file. […]. Corrected data was normalized to vehicle treated control values, and dose response percent kinase activity was analyzed by non-linear regression for determination of IC50 values.

BRAF = BRAF (Homo sapiens, UniProt P15056); test: Target kinase 10-point inhibition assay, BRAF; details: replicates
BRAF, sequence (P15056 whole entry): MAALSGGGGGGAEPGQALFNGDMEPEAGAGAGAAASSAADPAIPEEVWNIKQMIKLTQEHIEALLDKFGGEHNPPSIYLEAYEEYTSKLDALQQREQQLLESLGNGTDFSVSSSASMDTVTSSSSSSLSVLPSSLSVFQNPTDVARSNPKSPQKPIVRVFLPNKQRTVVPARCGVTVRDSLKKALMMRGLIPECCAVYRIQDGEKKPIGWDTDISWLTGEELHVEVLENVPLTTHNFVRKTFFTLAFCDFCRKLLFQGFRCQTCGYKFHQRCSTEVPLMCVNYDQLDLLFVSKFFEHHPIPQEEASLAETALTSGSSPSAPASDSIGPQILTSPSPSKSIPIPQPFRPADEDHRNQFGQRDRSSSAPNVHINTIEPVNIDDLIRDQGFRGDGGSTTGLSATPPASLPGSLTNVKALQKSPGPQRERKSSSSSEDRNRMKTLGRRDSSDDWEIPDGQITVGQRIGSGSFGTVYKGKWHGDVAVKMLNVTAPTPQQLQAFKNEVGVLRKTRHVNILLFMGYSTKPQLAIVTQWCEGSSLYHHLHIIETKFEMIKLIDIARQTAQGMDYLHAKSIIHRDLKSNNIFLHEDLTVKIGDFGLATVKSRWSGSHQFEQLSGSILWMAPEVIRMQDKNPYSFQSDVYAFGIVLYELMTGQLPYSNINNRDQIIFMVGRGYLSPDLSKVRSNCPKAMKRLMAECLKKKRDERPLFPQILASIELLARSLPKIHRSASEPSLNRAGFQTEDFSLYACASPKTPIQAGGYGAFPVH
Description: The average percent kinase inhibition from replicate data was ranked low to high, converted to a compatible identifier format, then input into Coral Human Kinome Visualization software for presentation analysis. […] Scaling of evolutionary distance for PI kinases is only relative and is based on literature analysis[62],[63]. Average percent kinome inhibition values from replicate data are supplied in Source Data file. […] Corrected data was normalized to vehicle treated control values, and dose response percent kinase activity was analyzed by non-linear regression for determination of IC50 values.

[1] = target: T1, Target kinase isoforms (PI3K, mTOR, RAF, MEK) (Homo sapiens, UniProt O00329); test: Target kinase isoforms 10-point IC50 determination (Supplementary Fig. 7); details: PI3K delta
T1 sequence (O00329 1-1044): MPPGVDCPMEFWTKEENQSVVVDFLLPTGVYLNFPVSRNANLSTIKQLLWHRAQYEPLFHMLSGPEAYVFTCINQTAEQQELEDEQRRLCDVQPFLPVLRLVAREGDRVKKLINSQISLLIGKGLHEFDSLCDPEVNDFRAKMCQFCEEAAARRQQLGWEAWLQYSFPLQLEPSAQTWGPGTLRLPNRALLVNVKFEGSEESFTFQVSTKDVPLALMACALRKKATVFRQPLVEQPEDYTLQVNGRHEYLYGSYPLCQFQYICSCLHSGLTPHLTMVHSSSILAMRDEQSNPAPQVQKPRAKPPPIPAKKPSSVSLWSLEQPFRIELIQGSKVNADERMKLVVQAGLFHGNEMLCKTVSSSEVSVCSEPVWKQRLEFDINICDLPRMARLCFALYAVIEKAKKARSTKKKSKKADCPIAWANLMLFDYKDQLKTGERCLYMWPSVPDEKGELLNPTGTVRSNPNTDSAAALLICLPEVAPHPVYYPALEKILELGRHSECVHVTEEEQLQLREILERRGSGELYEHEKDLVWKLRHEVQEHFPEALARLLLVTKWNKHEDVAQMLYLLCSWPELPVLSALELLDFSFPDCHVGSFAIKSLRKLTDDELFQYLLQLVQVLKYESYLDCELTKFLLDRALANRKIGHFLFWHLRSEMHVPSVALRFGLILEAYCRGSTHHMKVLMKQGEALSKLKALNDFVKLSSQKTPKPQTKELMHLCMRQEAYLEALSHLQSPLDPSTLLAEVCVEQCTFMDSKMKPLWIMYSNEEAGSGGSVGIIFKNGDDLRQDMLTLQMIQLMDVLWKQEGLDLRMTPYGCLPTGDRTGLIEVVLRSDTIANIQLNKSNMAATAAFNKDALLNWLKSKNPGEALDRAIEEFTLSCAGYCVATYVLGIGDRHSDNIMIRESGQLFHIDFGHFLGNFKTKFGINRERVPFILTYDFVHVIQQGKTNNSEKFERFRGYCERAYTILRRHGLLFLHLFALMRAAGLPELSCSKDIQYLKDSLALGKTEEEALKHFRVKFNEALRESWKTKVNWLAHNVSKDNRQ
In short: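 Kinase activity across a 10-point dose series was corrected and normalized to vehicle-treated controls. IC50 values were derived by non-linear regression of percent activity. Kinome-wide percent inhibition was averaged over replicates.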

[2] = concentration 0.0187 nM, 18.7 pM
[3] = concentration 0.0562 nM, 56.2 pM

PI3Kγ, sequence (P48736 whole entry, canonical isoform): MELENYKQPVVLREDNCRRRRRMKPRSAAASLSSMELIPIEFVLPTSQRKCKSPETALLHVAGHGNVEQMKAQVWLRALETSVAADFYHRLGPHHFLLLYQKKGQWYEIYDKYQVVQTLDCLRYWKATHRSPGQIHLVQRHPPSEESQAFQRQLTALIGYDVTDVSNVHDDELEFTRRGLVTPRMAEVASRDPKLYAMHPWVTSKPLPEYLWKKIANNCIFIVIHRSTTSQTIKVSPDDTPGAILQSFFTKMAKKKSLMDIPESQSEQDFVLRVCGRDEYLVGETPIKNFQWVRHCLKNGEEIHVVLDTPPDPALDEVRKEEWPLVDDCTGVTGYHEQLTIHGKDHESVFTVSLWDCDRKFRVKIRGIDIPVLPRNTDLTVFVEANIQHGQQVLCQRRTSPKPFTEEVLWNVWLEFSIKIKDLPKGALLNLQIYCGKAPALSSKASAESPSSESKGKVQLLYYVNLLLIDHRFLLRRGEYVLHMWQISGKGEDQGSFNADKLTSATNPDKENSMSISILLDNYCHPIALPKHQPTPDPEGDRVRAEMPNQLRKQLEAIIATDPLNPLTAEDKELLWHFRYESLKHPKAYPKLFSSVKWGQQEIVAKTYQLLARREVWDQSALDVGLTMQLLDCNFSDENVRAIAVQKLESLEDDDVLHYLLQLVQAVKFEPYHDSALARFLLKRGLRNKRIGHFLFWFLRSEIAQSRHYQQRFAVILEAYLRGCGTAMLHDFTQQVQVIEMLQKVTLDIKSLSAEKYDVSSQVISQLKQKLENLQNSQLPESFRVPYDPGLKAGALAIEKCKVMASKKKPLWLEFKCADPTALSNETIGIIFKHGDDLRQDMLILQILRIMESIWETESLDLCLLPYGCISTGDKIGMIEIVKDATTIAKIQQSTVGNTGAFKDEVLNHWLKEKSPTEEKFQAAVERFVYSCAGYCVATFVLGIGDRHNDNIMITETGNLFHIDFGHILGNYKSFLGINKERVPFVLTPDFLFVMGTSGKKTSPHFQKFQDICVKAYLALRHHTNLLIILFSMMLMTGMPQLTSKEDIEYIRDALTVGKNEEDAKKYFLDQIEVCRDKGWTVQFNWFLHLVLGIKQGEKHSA

SMILES: O=C(NOCCOCCOCCOCCC(=O)N1CCN(c2cnc3ccc(-c4cnc(Cl)c(NS(=O)(=O)c5ccc(F)cc5)c4)cc3n2)CC1)c1ccc(F)c(F)c1Nc1ccc(I)cc1F [LP-182, N-(2-(2-(2-(3-(4-(7-(6-chloro-5-((4-fluorophenyl)sulfonamido)pyridin-3-yl)quinoxalin-2-yl)piperazin-1-yl)-3-oxopropoxy)ethoxy)ethoxy)ethoxy)-3,4-difluoro-2-((2-fluoro-4-iodophenyl)amino)benzamide]
- Kinase Activity (%) (PI3Kγ; 0.495 nM, 0.000495 µM): 106% and 101% and 126% and 100% and 96% and 89% and 105% and 98%
- Kinase Activity (%) (PI3Kγ; 1.52 nM, 0.00152 µM): 108% and 97% and 115% and 123% and 99% (2×) and 105% and 90% and 88% and 93%
- Kinase Activity (%) (PI3Kγ; 4.57 nM, 0.00457 µM): 89% and 94% (2×) and 106% and 98% and 93% and 87% and 82% and 77% and 92%
- Kinase Activity (%) (PI3Kγ; 41.2 nM, 0.0412 µM): 50% (2×) and 48% and 43% and 55% and 47% and 37% and 30% and 31% and 32%
- activity at 0.123 µM (PI3Kγ; 123 nM): 20%
- Kinase Activity (%) (PI3Kγ; 123 nM, 0.123 µM): 21% (3×) and 25% and 22% and 19% and 16% (2×) and 13%
- activity at […] (PI3Kγ; 370 nM): 6%
- Kinase Activity (%) (PI3Kγ; 1110 nM, 1.11 µM): 1% (4×) and 4% and 0% and 2% (2×) and 3% (2×)
- Kinase Activity (%) (PI3Kγ; 3330 nM, 3.33 µM): 0% (9×) and 1%
- Kinase Activity (%) (PI3Kγ; 10000 nM, 10 µM): 4% and 0% (8×) and 2%
- activity at 0.000495 µM (BRAF; 0.495 nM): 100%
- Kinase Activity (%) (BRAF; 0.495 nM, 0.000495 µM): 102% and 96% and 94% and 93%
- activity at 0.00152 µM (BRAF; 1.52 nM): 101%
- Kinase Activity (%) (BRAF; 1.52 nM, 0.00152 µM): 98% and 95% (2×) and 94%
- activity at 0.00457 µM (BRAF; 4.57 nM): 90%
- Kinase Activity (%) (BRAF; 4.57 nM, 0.00457 µM): 94% and 95% and 98% and 89% and 93%
- Kinase Activity (%) (BRAF; 41.2 nM, 0.0412 µM): 49% and 38% and 54% and 59% and 53% (2×)
- Kinase Activity (%) (BRAF; 123 nM, 0.123 µM): 14% and 12% and 41% and 34% (2×) and 38%
- Kinase Activity (%) (BRAF; 1110 nM, 1.11 µM): -5% and -3% and 2% (2×) and 4% and 5%
- Kinase Activity (%) (BRAF; 3330 nM, 3.33 µM): -5% (2×) and 1% (3×) and 4%
- Kinase Activity (%) (BRAF; 10000 nM, 10 µM): -2% and -5% and 2% and 1% and 7% and -1%
- Kinase Activity (%) PI3K delta [1, 2]: 95% and 92% and 102% and 111% and 107%
- Kinase Activity (%) PI3K delta [1, 3]: 105% and 92% and 107% and 113% and 96%
- activity at 0.000495 µM ([1]; concentration 0.495 nM): 83%
- activity at 0.00152 µM ([1]; concentration 1.52 nM): 71%
- Kinase Activity (%) PI3K delta ([1]; concentration 4.57 nM, 0.00457 µM): 44%
- Kinase Activity (%) PI3K delta ([1]; concentration 1110 nM, 1.11 µM): 6% and 2% and 7% and 4%
- activity at 3.33 µM ([1]; concentration 3330 nM): 5%
- Kinase Activity (%) PI3K delta ([1]; concentration 3330 nM, 3.33 µM): 6%
- Kinase Activity (%) PI3K delta ([1]; concentration 10000 nM, 10 µM): 6% and 8% and 0% and 10% and 7%

SMILES: O=S(=O)(Nc1cc(-c2ccc3ncc(N4CCNCC4)nc3c2)cnc1Cl)c1ccc(F)cc1 [LP-527, N-(2-chloro-5-(3-(piperazin-1-yl)quinoxalin-6-yl)pyridin-3-yl)-4-fluorobenzenesulfonamide]
- activity at 18.7 pM (PI3Kγ; 0.0187 nM): 98%
- Kinase Activity (%) (PI3Kγ; 0.0187 nM, 18.7 pM): 118% and 115% and 109%
- Kinase Activity (%) (PI3Kγ; 0.0562 nM, 56.2 pM): 103% and 91% and 124%
- Kinase Activity (%) (PI3Kγ; 0.495 nM, 0.000495 µM): 94% (2×) and 75% and 83% and 72% and 100% and 97% and 99% and 96%
- Kinase Activity (%) (PI3Kγ; 1.52 nM, 0.00152 µM): 67% and 68% and 73% and 64% and 69% (2×) and 94% and 93% and 92% and 65%
- Kinase Activity (%) (PI3Kγ; 4.57 nM, 0.00457 µM): 52% and 53% and 49% and 45% and 47% and 76% and 79% and 62% and 70% and 55%
- Kinase Activity (%) (PI3Kγ; 41.2 nM, 0.0412 µM): 18% and 7% and 11% and 10% and 9% and 25% and 24% and 17% and 23% and 14%
- Kinase Activity (%) (PI3Kγ; 123 nM, 0.123 µM): 5% and 3% (2×) and 6% and 4% and 11% and 10% (2×) and 9% and 8%
- Kinase Activity (%) (PI3Kγ; 1110 nM, 1.11 µM): 0% (4×) and 8% and 1%
- Kinase Activity (%) (PI3Kγ; 3330 nM, 3.33 µM): 0% (5×) and 3%
- Kinase Activity (%) (PI3Kγ; 10000 nM, 10 µM): 3% and 0% (4×) and 8%
- activity at 6.09 pM (PI3Kγ; […]): 102%
- Kinase Activity (%) PI3K delta [1, 2]: 106% and 96% and 89% and 81%
- Kinase Activity (%) PI3K delta [1, 3]: 100% and 95% and 78% and 86% and 79% and 91%
- Kinase Activity (%) PI3K delta ([1]; concentration 41.2 nM, 0.0412 µM): 2% and 3%
- Kinase Activity (%) PI3K delta ([1]; concentration 123 nM, 0.123 µM): 1% and 3%
- Kinase Activity (%) PI3K delta ([1]; concentration 370 nM, […]): 2%
- activity at 1.11 µM ([1]; concentration 1110 nM): 0%
- Kinase Activity (%) PI3K delta ([1]; concentration 3330 nM, 3.33 µM): 2%
- Kinase Activity (%) PI3K delta ([1]; concentration 10000 nM, 10 µM): 9%

From paper PMC9386018, “A lymphatic-absorbed multi-targeted kinase inhibitor for myelofibrosis therapy” (Nature Communications, 2022)
